{"source": "patent US20240091141A1", "about": "“METHODS AND COMPOSITIONS FOR THE ABLATION OF NERVES” (TULAVI THERAPEUTICS, INC., priority 2021, published 2024)", "origin": "cited, not measured here", "key": {"a range of cell types": {"tested_on": "a range of cell types", "conditions": "across a range of cell types"}, "[1]": {"tested_on": "sympathetic, sensory and motor neurons"}, "sympathetic ganglia cell": {"tested_on": "sympathetic ganglia cell", "conditions": "in vitro; 4 ug/ml (10 uM)"}, "[2]": {"conditions": "meta-analysis covering over 12,000 patients"}}, "data": [{"compound": "C[C@H](CCCC(C)(C)O)[C@H]1CC[C@H]2[C@@H]3CC=C4C[C@@H](O)CC[C@]4(C)[C@H]3CC[C@]12C", "note": "[25-OH-cholesterol]", "values": [{"measurement": "neurotoxicity", "setting": "a range of cell types", "result": "demonstrated neurotoxicity"}]}, {"compound": "CCO", "note": "[ethanol]", "values": [{"measurement": "concentrations that result in neurolysis", "setting": "[1]", "result": "above 50%"}, {"measurement": "destruction of neurons", "setting": "[1]; One-hundred percent ethanol", "result": "completely destroy the cell bodies and axons"}]}, {"compound": "Cholesterol oxides", "values": [{"measurement": "time to sympathetic ganglia cell death", "setting": "sympathetic ganglia cell", "result": "≤ 36", "unit": "h"}]}, {"compound": "hyaluronic acid", "values": [{"measurement": "effect of intraarticular injections", "setting": "[2]", "result": "either no effect or a “clinically irrelevant effect”"}]}]}
